Experimental data published in US10214531B2 (Institute for Drug Discovery, LLC, priority 2013, dated 2019).
Counter-ions that a name gives are not always drawn.

Target: recombinant human AMCase (Homo sapiens, UniProt Q9BZP6)
Experiment: Human AMCase Activity Assay
Format: biochemical
Conditions: recombinant hAMCase, 4-methylumbelliferyl chitobioside substrate, citrate buffer pH 5.2, 37° C., 60 minutes; read-out: Activity (IC50 value key)
Procedure, shortened: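 Recombinant human enzyme with fluorogenic 4-methylumbelliferyl β-D-N,N′-diacetylchitobioside substrate in citrate buffer, pH 5.2, 60 min at 37 °C in the dark with shaking. Read-out is 4MU fluorescence at 460 nm.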

recombinant human AMCase, sequence (Q9BZP6 22-476): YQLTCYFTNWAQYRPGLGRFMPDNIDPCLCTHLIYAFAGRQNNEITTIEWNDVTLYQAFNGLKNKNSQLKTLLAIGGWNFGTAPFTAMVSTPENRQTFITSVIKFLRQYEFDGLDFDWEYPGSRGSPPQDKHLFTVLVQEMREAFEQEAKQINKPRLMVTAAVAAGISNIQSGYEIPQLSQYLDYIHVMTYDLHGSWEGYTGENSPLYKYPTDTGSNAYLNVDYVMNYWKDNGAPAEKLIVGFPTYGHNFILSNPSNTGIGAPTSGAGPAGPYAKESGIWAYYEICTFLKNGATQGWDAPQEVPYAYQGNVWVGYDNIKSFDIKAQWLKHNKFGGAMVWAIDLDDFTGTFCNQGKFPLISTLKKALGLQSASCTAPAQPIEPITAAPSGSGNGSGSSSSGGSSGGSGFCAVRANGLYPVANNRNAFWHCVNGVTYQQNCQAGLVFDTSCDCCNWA

Row | Structure (SMILES) | IC50
1 | Nc1n[nH]c(N2CCC(N(CCc3ccc(Cl)cc3)Cc3ccc(-c4ccccc4)cc3)CC2)n1 [Example 111, N-([1,1′-biphenyl]-4-ylmethyl)-1-(3-amino-1H-1,2,4-triazol-5-yl)-N-(4-chlorophenethyl) piperidin-4-amine] | < 0.1 µM
2 | Nc1n[nH]c(N2CCC(N(CCc3ccc(Cl)cc3)Cc3ccncc3F)CC2)n1 [Example 119, 1-(3-amino-1H-1,2,4-triazol-5-yl)-N-(4-chlorophenethyl)-N-((3-fluoropyridin-4-yl)methyl)piperidin-4-amine] | < 0.1 µM
3 | Nc1n[nH]c(N2CCC(CNCc3ccc(Br)cc3)CC2)n1 [Example 254, 5-(4-(((4-bromobenzyl)amino)methyl)piperidin-1-yl)-1H-1,2,4-triazol-3-amine] | > 100 µM
4 | Nc1n[nH]c(N2CCC(N(CCc3ccc(Cl)cc3)Cc3ccc(Cl)cc3Cl)CC2)n1 [Example 163, 1-(3-amino-1H-1,2,4-triazol-5-yl)-N-(4-chlorophenethyl)-N-(2,4-dichlorobenzyl)piperidin-4-amine] | < 0.1 µM
5 | Nc1n[nH]c(N2CCN(CCCc3ccc(C(F)(F)F)cc3)C(CCCO)C2)n1 (stereo not shown) [Example 223, 3-(4-(3-amino-1H-1,2,4-triazol-5-yl)-1-(3-(4-(trifluoromethyl)phenyl)propyl)piperazin-2-yl)propan-1-ol] | 1 to 10 µM
6 | Nc1n[nH]c(N2CCC(NS(=O)(=O)Cc3ccc(F)cc3)CC2)n1 [Example 57, N-(1-(3-amino-1H-1,2,4-triazol-5-yl)piperidin-4-yl)-1-(4-fluorophenyl)methanesulfonamide] | 10 to 100 µM
7 | CC(Cc1ccc(Br)cc1)CN1CCN(c2nc(N)n[nH]2)CC1 (stereo not shown) [Example 39, 5-(4-(3-(4-bromophenyl)-2-methylpropyl)piperazin-1-yl)-1H-1,2,4-triazol-3-amine dihydrochloride] | 1 to 10 µM
8 | CCC(Cc1ccc(Cl)cc1)N(CC)C1CCN(c2nc(N)n[nH]2)CC1 (stereo not shown) [Example 232, 1-(3-amino-1H-1,2,4-triazol-5-yl)-N-(1-(4-chlorophenyl)butan-2-yl)-N-ethylpiperidin-4-amine dihydrochloride] | 0.1 to 1 µM
9 | COC[C@@H](c1ccccc1)N(CCc1ccc(Cl)cc1)C1CCN(c2nc(N)n[nH]2)CC1 [Example 109] | 10 to 100 µM
10 | Nc1n[nH]c(N2CCC(N(CCc3ccc(Cl)cc3)Cc3ccccc3C(F)(F)F)CC2)n1 [Example 113, 1-(3-amino-1H-1,2,4-triazol-5-yl)-N-(4-chlorophenethyl)-N-(2-(trifluoromethyl)benzyl)piperidin-4-amine] | < 0.1 µM
11 | N#Cc1ccc(CN(CCc2ccc(Cl)cc2)C2CCN(c3nc(N)n[nH]3)CC2)cc1 [Example 142, 4-(((1-(3-amino-1H-1,2,4-triazol-5-yl)piperidin-4-yl)(4-chlorophenethyl)amino)methyl)benzonitrile] | < 0.1 µM
12 | Nc1n[nH]c(N2CCC(C(=O)NCc3cccc(F)c3)CC2)n1 [Example 196, 1-(3-amino-1H-1,2,4-triazol-5-yl)-N-(3-fluorobenzyl)piperidine-4-carboxamide] | > 100 µM
13 | Nc1n[nH]c(N2CCC(c3nnc(-c4ccc(F)cc4)o3)CC2)n1 [Example 43, 5-(4-(5-(4-fluorophenyl)-1,3,4-oxadiazol-2-yl)piperidin-1-yl)-1H-1,2,4-triazol-3-amine] | > 100 µM
14 | CC(CN(C)C1CCN(c2nc(N)n[nH]2)CC1)c1ccc(Cl)cc1 (stereo not shown) [Example 140, 1-(3-amino-1H-1,2,4-triazol-5-yl)-N-(2-(4-chlorophenyl)propyl)-N-methylpiperidin-4-amine dihydrochloride] | 10 to 100 µM
15 | C[C@H](c1ccccc1)N(CCc1ccc(Cl)cc1)C1CCN(c2nc(N)n[nH]2)CC1 [Example 118, (R)-1-(3-amino-1H-1,2,4-triazol-5-yl)-N-(4-chlorophenethyl)-N-(1-phenylethyl)piperidin-4-amine] | < 0.1 µM
16 | CCC(CN1CCN(c2nc(N)n[nH]2)CC1)Oc1ccc(Br)cc1 (stereo not shown) [Example 60, 5-(4-(2-(4-bromophenoxy)butyl)piperazin-1-yl)-1H-1,2,4-triazol-3-amine] | 10 to 100 µM
17 | CCC(Oc1ccc(Cl)cc1)C(=O)N1CCN(c2nc(N)n[nH]2)CC1 (stereo not shown) [Example 8, 1-(4-(3-amino-1H-1,2,4-triazol-5-yl)piperazin-1-yl)-2-(4-chlorophenoxy)-butan-1-one] | > 100 µM
18 | Cc1ccccc1OC(C)C(=O)N1CCN(c2nc(N)n[nH]2)CC1 (stereo not shown) [Example 32, 1-(4-(3-amino-1H-1,2,4-triazol-5-yl)piperazin-1-yl)-2-(o-tolyloxy)propan-1-one] | > 100 µM
19 | Nc1n[nH]c(N2CCC(N(CCc3ccc(Cl)cc3)Cc3ccc(F)c4ccccc34)CC2)n1 [Example 144, 1-(3-amino-1H-1,2,4-triazol-5-yl)-N-(4-chlorophenethyl)-N-((4-fluoronaphthalen-1-yl)methyl)piperidin-4-amine] | < 0.1 µM
20 | COc1ccc(C(=O)NCC2CCN(c3nc(N)n[nH]3)CC2)cc1OC [Example 211, N-((1-(3-amino-1H-1,2,4-triazol-5-yl)piperidin-4-yl)methyl)-3,4-dimethoxybenzamide] | > 100 µM

Row | Structure (SMILES) | IC50
21 | Nc1n[nH]c(N2CCNCC2)n1 [Example 38, 5-(piperazin-1-yl)-1H-1,2,4-triazol-3-amine trihydrochloride] | > 100 µM
22 | CN(CCc1ccc(F)cc1)C1CCN(c2nc(N)n[nH]2)CC1 [Example 183, 1-(3-amino-1H-1,2,4-triazol-5-yl)-N-(4-fluorophenethyl)-N-methylpiperidin-4-amine] | 1 to 10 µM
23 | CC(C)(Oc1ccc(Cl)cc1)C(=O)N1CCN(c2nc(N)n[nH]2)CC1 [Example 258, 1-(4-(3-amino-1H-1,2,4-triazol-5-yl)piperazin-1-yl)-2-(4-chlorophenoxy)-2-methylpropan-1-one] | > 100 µM
24 | Nc1n[nH]c(N2CCN(CCOc3ccccc3C(F)(F)F)CC2)n1 [Example 193, 5-(4-(2-(2-(trifluoromethyl)-phenoxy)ethyl)piperazin-1-yl)-1H-1,2,4-triazol-3-amine] | > 100 µM
25 | Nc1n[nH]c(N2CCN(CCOc3ccc(F)cc3)CC2)n1 [Example 1, 5-(4-(2-(4-fluorophenoxy)ethyl)piperazin-1-yl)-1H-1,2,4-triazol-3-amine] | > 100 µM
26 | Nc1n[nH]c(N2CCN(CCOc3ccc4[nH]ccc4c3)CC2)n1 [Example 82, 5-(4-(2-((1H-indol-5-yl)oxy)ethyl)piperazin-1-yl)-1H-1,2,4-triazol-3-amine] | > 100 µM
27 | Nc1n[nH]c(N2CCN(CCOc3c(Cl)cccc3Cl)CC2)n1 [Example 194, 5-(4-(2-(2,6-dichlorophenoxy)ethyl)piperazin-1-yl)-1H-1,2,4-triazol-3-amine] | 10 to 100 µM
28 | CN(C1CCN(c2nc(N)n[nH]2)CC1)S(=O)(=O)Cc1cccc(Cl)c1 [Example 248, N-(1-(3-amino-1H-1,2,4-triazol-5-yl)piperidin-4-yl)-2-(3-chlorophenyl)-N-methylmethanesulfonamide hydrochloride] | > 100 µM
29 | Nc1nc(N2CCC(N(CCc3ccc(Cl)cc3)Cc3ccc(Cl)cc3)CC2)n[nH]1 [Example 134, 1-(3-amino-1H-1,2,4-triazol-5-yl)-N-(4-chlorobenzyl)-N-(4-chlorophenethyl)piperidin-4-amine] | < 0.1 µM
30 | Nc1n[nH]c(N2CCC(N(CCc3ccc(Cl)cc3)Cc3ccccc3Br)CC2)n1 [Example 127, 1-(3-amino-1H-1,2,4-triazol-5-yl)-N-(2-bromobenzyl)-N-(4-chlorophenethyl)piperidin-4-amine] | < 0.1 µM
31 | CC(Cc1ccc(Cl)cc1)N(C)C1CCN(c2nc(N)n[nH]2)CC1 (stereo not shown) [Example 141, 1-(3-amino-1H-1,2,4-triazol-5-yl)-N-(1-(4-chlorophenyl)propan-2-yl)-N-methylpiperidin-4-amine dihydrochloride] | 0.1 to 1 µM
32 | CCCC1CN(c2nc(N)n[nH]2)CCC1NCCc1ccc(Cl)cc1 (single isomer, unassigned) [Example 234, 1-(3-amino-1H-1,2,4-triazol-5-yl)-N-(4-chlorophenethyl)-3-propylpiperidin-4-amine] | 0.1 to 1 µM
33 | Nc1n[nH]c(N2CCN(CCCc3ccccc3)C(CCCO)C2)n1 (stereo not shown) [Example 226] | 10 to 100 µM
34 | CC1CN(c2nc(N)n[nH]2)CCC1NS(=O)(=O)Cc1ccc(Br)cc1 (stereo not shown) [Example 244, N-(1-(3-amino-1H-1,2,4-triazol-5-yl)-3-methylpiperidin-4-yl)-1-(4-bromophenyl)methanesulfonamide] | 1 to 10 µM
35 | Nc1n[nH]c(N2CCN(CCCc3ccc(Cl)cc3)C(CO)C2)n1 (stereo not shown) [Example 66, (4-(3-amino-1H-1,2,4-triazol-5-yl)-1-(3-(4-chlorophenyl)propyl)piperazin-2-yl)methanol] | 10 to 100 µM
36 | CC(C)(C)CN(CCc1ccc(Cl)cc1)C1CCN(c2nc(N)n[nH]2)CC1 [Example 94, 1-(3-amino-1H-1,2,4-triazol-5-yl)-N-(4-chlorophenethyl)-N-neopentyl-piperidin-4-amine dihydrochloride] | < 0.1 µM
37 | Nc1n[nH]c(N2CCN(CCOc3ccccc3-c3ccccc3)CC2)n1 [Example 83, 5-(4-(2-([1,1′-biphenyl]-2-yloxy)ethyl)piperazin-1-yl)-1H-1,2,4-triazol-3-amine] | 10 to 100 µM
38 | C[C@@H](c1ccccc1)N(CCc1ccc(Cl)cc1)C1CCN(c2nc(N)n[nH]2)CC1 [Example 103, (S)-1-(3-amino-1H-1,2,4-triazol-5-yl)-N-(4-chlorophenethyl)-N-(1-phenylethyl) piperidin-4-amine] | 0.1 to 1 µM
39 | C[C@H](CN1CCN(c2nc(N)n[nH]2)CC1)Oc1ccc(Br)cc1 [Example 61, (R)-5-(4-(2-(4-bromophenoxy)propyl)piperazin-1-yl)-1H-1,2,4-triazol-3-amine] | 1 to 10 µM
40 | CN(CCc1ccccc1OC(F)(F)F)C1CCN(c2nc(N)n[nH]2)CC1 [Example 174, 1-(3-amino-1H-1,2,4-triazol-5-yl)-N-methyl-N-(2-(trifluoromethoxy)phenethyl)piperidin-4-amine] | 10 to 100 µM
